Experimental data taken from publication PMC8508694, “Insights into the Genetic Variations of Human Cytochrome P450 2C9: Structural Analysis, Characterization and Comparison” (International Journal of Molecular Sciences, 2021).

Key:
[1] = biological target: T1, CYP2C9*8 (Homo sapiens, UniProt P11712, R150H/V490I); test: ([…] Å) and ITC; assay type: binding
T1 construct: residues 1 to 23 (N-terminal transmembrane anchor) replaced with MAKKT, V490I, C-terminal four-histidine tag

[2] = biological target: T2, CYP2C9*3 (Homo sapiens, UniProt P11712, I359L/V490I); test: ITC; assay type: binding
T2 construct: residues 1 to 23 (N-terminal transmembrane anchor) replaced with MAKKT, V490I, C-terminal four-histidine tag
T2 sequence (P11712 24-490 I359L/V490I): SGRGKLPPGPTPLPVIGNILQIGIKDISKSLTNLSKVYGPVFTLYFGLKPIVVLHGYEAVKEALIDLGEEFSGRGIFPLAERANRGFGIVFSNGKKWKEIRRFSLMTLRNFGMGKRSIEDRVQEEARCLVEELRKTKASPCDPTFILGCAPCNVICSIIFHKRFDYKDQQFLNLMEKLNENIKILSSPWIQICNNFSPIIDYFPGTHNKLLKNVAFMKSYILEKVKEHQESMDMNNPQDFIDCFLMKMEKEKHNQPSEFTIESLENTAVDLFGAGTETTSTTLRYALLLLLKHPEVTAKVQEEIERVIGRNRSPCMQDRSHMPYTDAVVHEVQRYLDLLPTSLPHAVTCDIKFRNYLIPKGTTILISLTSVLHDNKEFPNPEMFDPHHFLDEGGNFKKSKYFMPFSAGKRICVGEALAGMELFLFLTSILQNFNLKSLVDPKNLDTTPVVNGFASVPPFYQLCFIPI

T1 sequence (P11712 24-490 R150H/V490I): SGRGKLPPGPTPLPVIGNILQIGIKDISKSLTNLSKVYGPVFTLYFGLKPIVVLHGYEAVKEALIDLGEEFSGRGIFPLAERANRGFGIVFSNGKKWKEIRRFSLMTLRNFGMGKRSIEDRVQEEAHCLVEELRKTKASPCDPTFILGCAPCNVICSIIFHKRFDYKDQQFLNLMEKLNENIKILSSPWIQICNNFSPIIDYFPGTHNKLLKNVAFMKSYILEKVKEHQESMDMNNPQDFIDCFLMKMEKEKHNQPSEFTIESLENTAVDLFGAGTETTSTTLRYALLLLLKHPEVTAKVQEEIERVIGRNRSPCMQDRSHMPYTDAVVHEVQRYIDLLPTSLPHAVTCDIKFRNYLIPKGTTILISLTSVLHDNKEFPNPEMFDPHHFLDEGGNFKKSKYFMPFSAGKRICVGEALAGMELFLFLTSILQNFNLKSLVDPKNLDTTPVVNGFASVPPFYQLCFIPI

CCCCc1nc(Cl)c(CO)n1Cc1ccc(-c2ccccc2-c2nn[nH]n2)cc1 [losartan]
Kd [1]: 8.95 ± 0.97 µM | Kd [2]: 24.5 ± 2.7 µM
